According to ChEMBL document CHEMBL3808373 (Bioorg Med Chem Lett, 2016):
pIC50: −log10 of the molar value. The source made the active and inactive calls. No cut-off for these calls is given here.

Tests used:
[1] = Half life in rat microsomes; type: ADME, Microsome
[2] = target: T1, Nav1.5 (peak sodium current, use-dependent block) (Homo sapiens, UniProt Q14524); test: (§1) Inhibition of 3 Hz stimulated human Nav1.5alpha expressed in HEK293 cells assessed as use dependent block of peak sodium current at 1 uM with 3 compound additions at 60 sec intervals at holding potential -100 mV incubated for 320 sec after third compound addition followed by second period of 3 Hz stimulation by PatchXpress method relative to control; type: cell-based; conditions: HEK293 cells expressing human Nav1.5alpha
[3] = target: T2, Sodium channel protein type 1 subunit alpha (Homo sapiens, UniProt P35498); test: Inhibition of 10 Hz stimulated Nav1.1 (unknown origin) assessed as inhibition of peak sodium current at 10 uM by automated patch clamp method relative to control
[4] = target: T3, Sodium channel protein type 5 subunit alpha (Homo sapiens, UniProt Q14524); conditions: HEK293, human, read-out: INH
Description: Inhibition of 0.1 Hz stimulated human Nav1.5alpha expressed in HEK293 cells assessed as inhibition of late sodium current at 10 uM with 3 compound additions for 7 to 8 mins at holding potential -120 mV in presence of late sodium current activator tefluthrin/ATX2 measured immediately after third compound addition by PatchXpress method relative to control

[5] = Half life in human microsomes; type: ADME, Microsome
[6] = Half life in dog microsomes; type: ADME, Canis lupus familiaris, Microsome
[7] = target: T3, Sodium channel protein type 5 subunit alpha; test: (§2) Inhibition of 0.1 Hz stimulated human Nav1.5alpha expressed in HEK293 cells assessed as inhibition of late sodium current with 3 compound additions for 7 to 8 mins at holding potential -120 mV in presence of late sodium current activator tefluthrin/ATX2 measured immediately after third compound addition by PatchXpress method; type: cell-based
[8] = target: Voltage-gated inwardly rectifying potassium channel KCNH2 (Homo sapiens, UniProt Q12809); test: Inhibition of human ERG
[9] = Ratio of drug level in brain to plasma in dog; type: ADME, cell-free, Canis lupus familiaris; conditions: read-out: BPR
[10] = target: T4, Sodium channel protein type 2 subunit alpha (Homo sapiens, UniProt Q99250); test: Inhibition of 1 Hz stimulated Nav1.2 (unknown origin) by manual patch clamp method
[11] = Ratio of drug level in brain to plasma in rat; type: ADME, cell-free; conditions: read-out: BPR
[12] = target: T2, Sodium channel protein type 1 subunit alpha; test: Inhibition of 1 Hz stimulated Nav1.1 (unknown origin) by manual patch clamp method
[13] = target: T2, Sodium channel protein type 1 subunit alpha; test: Inhibition of 10 Hz stimulated Nav1.1 (unknown origin) by manual patch clamp method
[14] = target: T4, Sodium channel protein type 2 subunit alpha; test: Inhibition of 10 Hz stimulated Nav1.2 (unknown origin) by manual patch clamp method
[15] = Oral bioavailability in rat; type: ADME, organism-based; conditions: in vivo
[16] = Volume of distribution in cynomolgus monkey; type: ADME, organism-based, Macaca fascicularis; conditions: in vivo
[17] = target: T3, Sodium channel protein type 5 subunit alpha; test: Inhibition of 1 Hz stimulated Nav1.5 (unknown origin) assessed as inhibition of peak sodium current by manual patch clamp method
[18] = Terminal half life in rabbit; type: ADME, organism-based, Oryctolagus cuniculus; conditions: in vivo, read-out: beta t1/2 (converted)
[19] = Plasma protein binding in dog; type: ADME, cell-free, Canis lupus familiaris; conditions: read-out: PPB (converted)
[20] = Clearance in cynomolgus monkey microsomes; type: ADME, Macaca fascicularis, Microsome
[21] = Plasma protein binding in human; type: ADME, cell-free; conditions: read-out: PPB (converted)
[22] = target: T1, Nav1.5 (peak sodium current, use-dependent block); test: as §1, with “at 10” for “at 1”; type: cell-based; conditions: HEK293 cells expressing human Nav1.5alpha
[23] = target: T3, Sodium channel protein type 5 subunit alpha; test: Inhibition of 3 Hz stimulated Nav1.5 (unknown origin) assessed as inhibition of peak sodium current by manual patch clamp method
[24] = Plasma protein binding in rat; type: ADME, cell-free; conditions: read-out: PPB (converted)
[25] = Terminal half life in dog; type: ADME, organism-based, Canis lupus familiaris; conditions: in vivo, read-out: beta t1/2 (converted)
[26] = Clearance in human microsomes; type: ADME, Microsome
[27] = Clearance in cynomolgus monkey; type: ADME, organism-based, Macaca fascicularis; conditions: in vivo
[28] = Clearance in rat; type: ADME, organism-based; conditions: in vivo
[29] = Volume of distribution in rat; type: ADME, organism-based; conditions: in vivo
[30] = Inhibition of Nav1.5 in isolated rabbit heart assessed as inhibition of ATX2-induced prolongation of mean action potential duration; conditions: Oryctolagus cuniculus
[31] = Clearance in rat microsomes; type: ADME, Microsome
Oryctolagus cuniculus = species: Oryctolagus cuniculus; test: Inhibition of Nav1.5 in isolated rabbit heart assessed as inhibition of ATX2-induced prolongation of mean action potential duration at 10 to 100000 nM relative to control
[32] = Clearance in dog; type: ADME, organism-based, Canis lupus familiaris; conditions: in vivo
[33] = Clearance in dog microsomes; type: ADME, Canis lupus familiaris, Microsome
[34] = Volume of distribution in rabbit; type: ADME, organism-based, Oryctolagus cuniculus; conditions: in vivo
Heart [35] = test: Protection against […]/clofilium-induced ventricular arrhythmias in isolated rabbit heart assessed as inhibition of torsade des pointes at 3 uM; type: functional, tissue-based; conditions: Oryctolagus cuniculus, Cardiac ventricle
[36] = Plasma protein binding in rabbit; type: ADME, cell-free, Oryctolagus cuniculus; conditions: read-out: PPB (converted)
Rattus norvegicus = species: Rattus norvegicus; test: Toxicity in rat assessed as liver lesions after 7 days; type: organism-based; conditions: in vivo, 168 h
[37] = Oral bioavailability in dog; type: ADME, organism-based, Canis lupus familiaris; conditions: in vivo
[38] = target: T3, Sodium channel protein type 5 subunit alpha; test: Inhibition of Nav1.5 (unknown origin) assessed as inhibition of late sodium current by manual patch clamp method
[39] = Volume of distribution in dog; type: ADME, organism-based, Canis lupus familiaris; conditions: in vivo
[40] = Clearance in rabbit; type: ADME, organism-based, Oryctolagus cuniculus; conditions: in vivo
[41] = Terminal half life in rat; type: ADME, organism-based; conditions: in vivo, read-out: beta t1/2 (converted)
[42] = Terminal half life in monkey; type: ADME, organism-based, Macaca mulatta; conditions: rhesus monkey, in vivo; read-out: beta t1/2 (converted)
[43] = target: T3, Sodium channel protein type 5 subunit alpha; test: as §2, with “sodium current at 1 uM with 3” for “sodium current with 3”, “PatchXpress method relative to control” for “PatchXpress method”; type: cell-based
[44] = Lipophilicity, log D of compound; type: physicochemical; conditions: octanol/water
[45] = target: T1, Nav1.5 (peak sodium current, use-dependent block); test: as §1, with “at 0.3” for “at 1”; type: cell-based; conditions: HEK293 cells expressing human Nav1.5alpha
Heart [46] = test: Protection against […]/clofilium-induced ventricular arrhythmias in isolated rabbit heart assessed as torsade des pointes at 14 uM relative to control; type: functional, Oryctolagus cuniculus, Cardiac ventricle

T3 sequence (Q14524 whole entry): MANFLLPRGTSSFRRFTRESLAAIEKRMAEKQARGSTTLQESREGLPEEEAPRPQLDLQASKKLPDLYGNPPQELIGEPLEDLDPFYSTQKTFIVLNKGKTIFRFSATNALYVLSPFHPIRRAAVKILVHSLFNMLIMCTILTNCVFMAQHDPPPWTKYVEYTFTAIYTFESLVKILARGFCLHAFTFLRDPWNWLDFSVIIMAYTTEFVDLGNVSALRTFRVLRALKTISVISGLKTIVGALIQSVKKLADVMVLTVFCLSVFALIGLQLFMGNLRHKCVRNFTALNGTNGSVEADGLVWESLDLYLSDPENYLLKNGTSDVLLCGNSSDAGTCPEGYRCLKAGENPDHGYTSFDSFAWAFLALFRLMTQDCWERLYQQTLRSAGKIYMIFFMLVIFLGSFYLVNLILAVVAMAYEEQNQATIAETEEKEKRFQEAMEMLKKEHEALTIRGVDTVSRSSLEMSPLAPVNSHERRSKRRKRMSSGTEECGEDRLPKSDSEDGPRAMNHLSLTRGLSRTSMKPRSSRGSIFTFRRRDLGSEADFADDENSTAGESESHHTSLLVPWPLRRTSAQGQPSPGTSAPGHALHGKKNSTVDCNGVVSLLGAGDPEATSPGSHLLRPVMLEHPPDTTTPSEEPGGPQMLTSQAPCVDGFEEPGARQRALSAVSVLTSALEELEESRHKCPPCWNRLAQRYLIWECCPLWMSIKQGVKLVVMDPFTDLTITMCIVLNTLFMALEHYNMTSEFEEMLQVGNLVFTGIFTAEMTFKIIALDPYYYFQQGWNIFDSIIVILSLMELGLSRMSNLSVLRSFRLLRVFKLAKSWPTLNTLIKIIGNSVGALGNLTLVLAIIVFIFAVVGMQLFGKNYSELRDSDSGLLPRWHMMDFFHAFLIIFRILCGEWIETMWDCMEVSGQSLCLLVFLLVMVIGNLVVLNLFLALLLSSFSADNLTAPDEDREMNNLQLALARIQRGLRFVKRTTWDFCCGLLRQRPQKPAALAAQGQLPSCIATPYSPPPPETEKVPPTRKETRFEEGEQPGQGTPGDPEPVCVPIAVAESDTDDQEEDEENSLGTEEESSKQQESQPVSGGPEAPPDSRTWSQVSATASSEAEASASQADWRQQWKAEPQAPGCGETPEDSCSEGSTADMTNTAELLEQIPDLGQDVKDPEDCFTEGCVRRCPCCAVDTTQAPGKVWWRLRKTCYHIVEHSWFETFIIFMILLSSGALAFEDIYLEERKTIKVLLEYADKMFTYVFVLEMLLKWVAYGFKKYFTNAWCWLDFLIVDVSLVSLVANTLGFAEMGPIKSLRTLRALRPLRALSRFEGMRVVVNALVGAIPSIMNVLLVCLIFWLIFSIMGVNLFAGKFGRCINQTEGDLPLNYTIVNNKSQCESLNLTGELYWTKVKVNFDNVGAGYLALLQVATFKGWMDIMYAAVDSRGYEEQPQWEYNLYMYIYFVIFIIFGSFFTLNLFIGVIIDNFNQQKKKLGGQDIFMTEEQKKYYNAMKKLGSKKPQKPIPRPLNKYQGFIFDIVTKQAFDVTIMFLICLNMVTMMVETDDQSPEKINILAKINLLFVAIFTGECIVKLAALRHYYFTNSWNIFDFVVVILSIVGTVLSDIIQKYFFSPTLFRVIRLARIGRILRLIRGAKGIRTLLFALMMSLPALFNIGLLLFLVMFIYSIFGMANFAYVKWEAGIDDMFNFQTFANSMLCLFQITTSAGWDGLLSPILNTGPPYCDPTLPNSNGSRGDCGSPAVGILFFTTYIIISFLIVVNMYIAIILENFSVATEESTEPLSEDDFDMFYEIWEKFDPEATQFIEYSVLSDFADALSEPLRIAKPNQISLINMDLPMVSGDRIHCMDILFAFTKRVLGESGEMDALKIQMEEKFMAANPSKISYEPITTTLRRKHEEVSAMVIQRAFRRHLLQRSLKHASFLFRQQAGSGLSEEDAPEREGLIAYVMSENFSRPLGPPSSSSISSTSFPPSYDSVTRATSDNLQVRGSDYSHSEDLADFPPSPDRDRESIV
T1 sequence (Q14524 whole entry): as above

Compound: O=c1n(Cc2nnc(C3CC3)o2)nc2ccc(-c3ccc(Oc4ccc(F)cc4)cc3)cn12
- half-life [1]: 6.58 h
- inhibition at 320 s, 1 µM [2]: 69%
- inhibition [3]: 56%
- inhibition at 10 µM [4]: ≥ 70%
- half-life [5]: 6.58 h
- half-life [6]: 4.78 h
- pIC50 [7]: 3.13

Compound: Cc1cnc(Cn2nc3ccc(-c4ccc(OC(F)(F)F)cc4)cn3c2=O)o1
- half-life [1]: 0.4 h
- inhibition [3]: 44%
- inhibition at 10 µM [4]: ≥ 70%
- half-life [5]: 4.8 h
- half-life [6]: 3.8 h
- pIC50 [7]: 5.60

Compound: O=c1n(Cc2nc(-c3c(Cl)cccc3Cl)no2)nc2ccc(-c3ccc(OC(F)(F)F)cc3)cn12
- inhibition at 10 µM [4]: ≥ 70%
- pIC50 [7]: 5.46

Compound: O=c1[nH]nc2ccc(-c3ccc(Oc4ccc(F)cc4)cc3)cn12
- half-life [1]: 0.717 h
- inhibition at 320 s, 1 µM [2]: 28%
- inhibition [3]: 40%
- inhibition at 10 µM [4]: ≥ 70%
- half-life [5]: 6.58 h
- half-life [6]: 4.55 h
- pIC50 [7]: 2.72

Compound: FC(F)(F)Oc1ccc(-c2ccc3nnc(C(F)(F)F)n3c2)cc1
- pIC50 [8]: < 5.00
- Kp [9]: 3
- pIC50 [10]: 6.40
- Kp [11]: 5
- pIC50 [12]: < 5.00
- pIC50 [13]: 6.40
- pIC50 [14]: 5.10

Compound: Cc1noc(Cn2nc3ccc(-c4ccc(OC(F)(F)F)cc4)cn3c2=O)n1
- bioavailability [15]: 44.3%
- Vd [16]: 2.29 L/kg
- pIC50 [17]: < 5.00
- pIC50 [8]: < 5.00
- half-life [18]: 4.81 h
- fraction unbound [19]: 0.057
- Kp [9]: > 20
- half-life [1]: 3.3 h
- CL [20]: 0.4 L/h/kg
- fraction unbound [21]: 0.05
- inhibition at 320 s, 10 µM [22]: 10%
- pIC50 [23]: < 5.00
- fraction unbound [24]: 0.046
- half-life [25]: 17.3 h
- CL [26]: 0.21 L/h/kg
- pIC50 [10]: 5.38
- clearance [27]: 0.478 L/h/kg
- clearance [28]: 0.719 L/h/kg
- Vd [29]: 1.95 L/kg
- pIC50 [30]: 5.92
- CL [31]: 0.52 L/h/kg
- inhibition (Oryctolagus cuniculus): 90%
- inhibition [3]: 8%
- clearance [32]: 0.479 L/h/kg
- inhibition at 10 µM [4]: ≥ 70%
- Kp [11]: > 20
- half-life [5]: 5.13 h
- CL [33]: 0.26 L/h/kg
- half-life [6]: 3.93 h
- Vd [34]: 2.24 L/kg
- inhibition (Heart [35]): Active
- fraction unbound [36]: 0.043
- Activity (Rattus norvegicus): Toxic
- pIC50 [12]: < 5.00
- bioavailability [37]: 72.8%
- pIC50 [38]: 5.88
- Vd [39]: 4.23 L/kg
- clearance [40]: 0.422 L/h/kg
- pIC50 [7]: 5.72
- pIC50 [13]: 5.32
- half-life [41]: 2.1 h
- half-life [42]: 4.78 h
- inhibition at 1 µM [43]: 31%
- pIC50 [14]: 5.09

Compound: Cc1noc(Cn2nc3ccc(-c4ccc(Oc5ccc(F)cc5)cc4)cn3c2=O)n1
- logD [44]: 3
- half-life [1]: 1.42 h
- inhibition at 10 µM [4]: ≥ 70%
- inhibition at 320 s, 0.3 µM [45]: 33%
- half-life [5]: 2.12 h
- half-life [6]: 3.62 h
- pIC50 [7]: 3.67

Compound: O=c1[nH]nc2ccc(-c3ccc(OC(F)(F)F)cc3)cn12
- half-life [1]: 1.48 h
- inhibition at 320 s, 10 µM [22]: 24%
- inhibition at 10 µM [4]: ≥ 70%
- half-life [5]: 6.5 h
- half-life [6]: 3.17 h
- pIC50 [7]: 5.72

Compound: COc1ccccc1OCC(O)CN1CCN(CC(=O)Nc2c(C)cccc2C)CC1 (stereo not drawn) [RANOLAZINE]
- Activity (Heart [46]): 40%
- inhibition (Oryctolagus cuniculus): 60%
